Reference: the OligoGym collection
Values joined by “and” are separate entries in the source; they are usually repeats but may differ in a detail not shown here. Equal values may be shown once. After the bases stand the sugars from the 5' end (letter, count) and the backbone: PS all phosphorothioate, else s phosphorothioate and o phosphodiester by linkage. Methylation of C is not given here. e = 2'-O-(2-methoxyethyl) (MOE); d = 2'-deoxy (DNA)

Target: DGAT2
Conditions: ASO

Row | Sequence | target mRNA inhibition (HepG2, 0.12 µM) | also measured
1 | AGTCTAGTTGGAAAAGTAGA (sugars e5 d10 e5, PS) | 16% | 
2 | AGTTCCTGGTGGTCAGCAGG (sugars e5 d10 e5, PS) | 58% | 
3 | AGTTTCCTTTGAAATCCAAT (sugars e5 d10 e5, PS) |  | target mRNA inhibition (HepG2, 2.5 µM): 65%; target mRNA inhibition (HepG2, 10 µM): 88%
4 | AGTTTCGGACCCACTGTGAC (sugars e2 d13 e5, PS) | 64% | 
5 | AGTTTGCTCAGTTCTTCCAA (sugars e5 d10 e5, PS) |  | target mRNA inhibition (HepG2, 2.5 µM): 61%; target mRNA inhibition (HepG2, 10 µM): 91%
6 | ATAACCCACAGACACCCATG (sugars e5 d10 e5, PS) | 24% | 
7 | ATAGGCCTGGATGCCCAAGT (sugars e5 d10 e5, PS) |  | target mRNA inhibition (HepG2, 2.5 µM): 49%; target mRNA inhibition (HepG2, 10 µM): 88%
8 | ATATACAAAAGTCTGACATG (sugars e5 d10 e5, PS) | 21% | 
9 | ATCTCAGTCACTGACTCACA (sugars e5 d10 e5, PS) |  | target mRNA inhibition (HepG2, 2.5 µM): 46%; target mRNA inhibition (HepG2, 10 µM): 95%
10 | ATGCCAATGCCTAGGTC (sugars e3 d10 e4, PS) |  | target mRNA inhibition (HepG2, 2.5 µM): 70% and 84%
11 | ATGGGAATGGTATCGCACTC (sugars e5 d10 e5, PS) |  | target mRNA inhibition (HepG2, 2.5 µM): 57% and 72%; target mRNA inhibition (HepG2, 10 µM): 80% and 96%
12 | ATTGCCACTCCCATTCTTTG (sugars e5 d10 e5, PS) | 35% | 
13 | CAAATCTGTGTGACCTTGGG (sugars e5 d10 e5, PS) |  | target mRNA inhibition (HepG2, 2.5 µM): 65%; target mRNA inhibition (HepG2, 10 µM): 93%
14 | CACCAGCCAAGTGAAGTAGA (sugars e5 d10 e5, PS) | 23% | 
15 | CACCAGGGCCTCCATGTACA (sugars e3 d14 e3, PS) | 41% | 
16 | CACTAAATTAGGAAGCTGGG (sugars e5 d10 e5, PS) |  | target mRNA inhibition (HepG2, 2.5 µM): 81% and 82%; target mRNA inhibition (HepG2, 10 µM): 83% and 85%
17 | CACTTCTGTGGCCTCTGTGC (sugars e5 d10 e5, PS) | 38% | 
18 | CAGCGATGAGCCAGCAA (sugars e3 d10 e4, PS) |  | target mRNA inhibition (HepG2, 2.5 µM): 35%; target mRNA inhibition (HepG2, 10 µM): 88%
19 | CAGGACCCCGGAGTAGGCGG (sugars e5 d10 e5, PS) | 75% | 

Row | Sequence | target mRNA inhibition (HepG2, 0.12 µM) | also measured
20 | CAGGACCTCAGGGCTGGCCC (sugars e5 d10 e5, PS) |  | target mRNA inhibition (HepG2, 2.5 µM): 57% and 50%; target mRNA inhibition (HepG2, 10 µM): 71%
21 | CAGGCCCCACTGCTTAGAGG (sugars e5 d10 e5, PS) | 48% | 
22 | CAGGGTGACTTTGCCCCATT (sugars e5 d10 e5, PS) | 43% | 
23 | CAGGTAAGGCCGTATGCCTG (sugars e5 d10 e5, PS) | 63% | 
24 | CAGGTACTCCCTCAACACAG (sugars e5 d10 e5, PS) | 52% | 
25 | CAGGTCCTCCGTGAGAGCGC (sugars e5 d10 e5, PS) | 29% | 
26 | CAGGTTGTGTGTCTTCACCA (sugars e2 d13 e5, PS) | 62% | 
27 | CAGGTTGTGTGTCTTCACCA (sugars e3 d14 e3, PS) | 68% | 
28 | CAGTGCCCCATCTCCCAGAC (sugars e5 d10 e5, PS) | 0% | 
29 | CAGTTTCGGACCCACTGTGA (sugars e3 d14 e3, PS) | 58% | 
30 | CATGGAGCTCAGAGACTCAG (sugars e3 d14 e3, PS) | 62% | 
31 | CATGTCATCAGCCACCCAAG (sugars e5 d10 e5, PS) | 16% | 
32 | CATTGCCACCCCCATCCTCA (sugars e5 d10 e5, PS) | 9% | 
33 | CCAAAGATATAGTTCCTGGT (sugars e5 d10 e5, PS) | 66% | 
34 | CCAATGCCTAGGTCACAGTT (sugars e5 d10 e5, PS) |  | target mRNA inhibition (HepG2, 2.5 µM): 91%; target mRNA inhibition (HepG2, 10 µM): 83%
35 | CCACCTTCCAGGGAATAAAA (sugars e5 d10 e5, PS) | 22% | 
36 | CCAGGCCAAGGCTGAGTCTG (sugars e5 d10 e5, PS) | 27% | 
37 | CCAGGGCCTCCATGTACATG (sugars e3 d14 e3, PS) | 86% | target mRNA inhibition (HepG2, 10 µM): 59%; target mRNA inhibition (HepG2, 20 µM): 41%
38 | CCAGGTAAGGCCGTATGCCT (sugars e2 d13 e5, PS) | 64% | 
